Assays:
Assay type in all cases: in vivo
directly sown rice [1] = assay: Test Example 4: foliar treatment, effect on crop; b: directly sown rice; settings: treatment dosage 315 g/ha
Procedure, shortened: (§1)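 Seeds are spot-sown into sterilized diluvial soil and covered with about 1.5 cm of soil. After 14 days' greenhouse growth at 25 to 30° C, plants are sprayed on stems and leaves with diluted emulsion at the stated g/ha rate, then scored at 3 weeks.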

corn [2] = assay: Test Example 4: foliar treatment, effect on crop; c: corn; settings: treatment dosage 315 g/ha
Procedure, shortened: as §1

green foxtail [3] = assay: Test Example 4: weedkilling efficacy by foliar treatment; E: green foxtail; settings: treatment dosage 315 g/ha
Procedure, shortened: as §1

catchweed [4] = assay: Test Example 3: weedkilling efficacy through soil treatment; O: catchweed; settings: treatment dosage 315 g/ha
Procedure, shortened: (§2)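 Crop and weed responses were judged three weeks after a uniform surface spray of the water-diluted emulsion at the given g/ha rate. Seeds sat beneath about 1.5 cm of sterilized diluvial soil, and boxes stood in a greenhouse at 25 to 30° C.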

wild oat [5] = assay: Test Example 3: weedkilling efficacy through soil treatment; G: wild oat; settings: treatment dosage 315 g/ha
Procedure, shortened: as §2

black-grass [6] = assay: Test Example 3: weedkilling efficacy through soil treatment; H: black-grass; settings: treatment dosage 315 g/ha
Procedure, shortened: as §2

chickweed [7] = assay: Test Example 3: weedkilling efficacy through soil treatment; N: chickweed; settings: treatment dosage 315 g/ha
Procedure, shortened: as §2

fig-leafed goosefoot [8] = assay: Test Example 3: weedkilling efficacy through soil treatment; M: fig-leafed goosefoot; settings: treatment dosage 315 g/ha
Procedure, shortened: as §2

bulrush [9] = assay: Test Example 2: weedkilling efficacy, growth period weed treatment in the submerged state; B: bulrush; settings: treatment dosage 252 g/ha
Procedure, shortened: (§3)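 Seedlings at 1-2 leaves in 4 cm-deep submerged alluvial soil received emulsion formulations on the water surface, dosed per hectare; effects were judged 3 weeks on.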

Italian ryegrass [10] = assay: Test Example 4: weedkilling efficacy by foliar treatment; I: Italian ryegrass; settings: treatment dosage 315 g/ha
Procedure, shortened: as §1

directly sown rice [11] = assay: Test Example 3: soil treatment, effect on crop; b: directly sown rice; settings: treatment dosage 315 g/ha
Procedure, shortened: as §2

beet [12] = assay: Test Example 4: foliar treatment, effect on crop; f: beet; settings: treatment dosage 315 g/ha
Procedure, shortened: as §1

Indian mallow [13] = assay: Test Example 4: weedkilling efficacy by foliar treatment; K: Indian mallow; settings: treatment dosage 315 g/ha
Procedure, shortened: as §1

Indian mallow [14] = assay: Test Example 3: weedkilling efficacy through soil treatment; K: Indian mallow; settings: treatment dosage 315 g/ha
Procedure, shortened: as §2

Italian ryegrass [15] = assay: Test Example 3: weedkilling efficacy through soil treatment; I: Italian ryegrass; settings: treatment dosage 315 g/ha
Procedure, shortened: as §2

crabgrass [16] = assay: Test Example 4: weedkilling efficacy by foliar treatment; D: crabgrass; settings: treatment dosage 315 g/ha
Procedure, shortened: as §1

chickweed [17] = assay: Test Example 4: weedkilling efficacy by foliar treatment; N: chickweed; settings: treatment dosage 315 g/ha
Procedure, shortened: as §1

birds-eye speedwell = assay: Test Example 3: weedkilling efficacy through soil treatment; p: birds-eye speedwell; settings: treatment dosage 315 g/ha
Procedure, shortened: as §2

oval-leafed pondweed [18] = assay: Test Example 1: weedkilling efficacy, preemergent weed treatment in the submerged state; C: oval-leafed pondweed; settings: treatment dosage 252 g/ha
Procedure, shortened: (§4)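 Submerged pre-emergence treatment, water-surface application of compound emulsion at g/ha dosages; 4 cm flooded alluvial soil, weeds sown and 2.5-leaf rice transplanted same day. Rated after 3 weeks, greenhouse.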

soybean [19] = assay: Test Example 4: foliar treatment, effect on crop; d: soybean; settings: treatment dosage 315 g/ha
Procedure, shortened: as §1

soybean [20] = assay: Test Example 3: soil treatment, effect on crop; d: soybean; settings: treatment dosage 315 g/ha
Procedure, shortened: as §2

barnyard grass [21] = assay: Test Example 2: weedkilling efficacy, growth period weed treatment in the submerged state; A: barnyard grass; settings: treatment dosage 252 g/ha
Procedure, shortened: as §3

redroot pigweed [22] = assay: Test Example 3: weedkilling efficacy through soil treatment; L: redroot pigweed; settings: treatment dosage 315 g/ha
Procedure, shortened: as §2

catchweed [23] = assay: Test Example 4: weedkilling efficacy by foliar treatment; O: catchweed; settings: treatment dosage 315 g/ha
Procedure, shortened: as §1

wheat [24] = assay: Test Example 3: soil treatment, effect on crop; e: wheat; settings: treatment dosage 315 g/ha
Procedure, shortened: as §2

green foxtail [25] = assay: Test Example 3: weedkilling efficacy through soil treatment; E: green foxtail; settings: treatment dosage 315 g/ha
Procedure, shortened: as §2

redroot pigweed [26] = assay: Test Example 4: weedkilling efficacy by foliar treatment; L: redroot pigweed; settings: treatment dosage 315 g/ha
Procedure, shortened: as §1

corn [27] = assay: Test Example 3: soil treatment, effect on crop; c: corn; settings: treatment dosage 315 g/ha
Procedure, shortened: as §2

transplanted rice = assay: Test Example 1: preemergent weed treatment in the submerged state, effect on crop; a: transplanted rice; settings: treatment dosage 252 g/ha
Procedure, shortened: as §4

beet [28] = assay: Test Example 3: soil treatment, effect on crop; f: beet; settings: treatment dosage 315 g/ha
Procedure, shortened: as §2

fig-leafed goosefoot [29] = assay: Test Example 4: weedkilling efficacy by foliar treatment; M: fig-leafed goosefoot; settings: treatment dosage 315 g/ha
Procedure, shortened: as §1

barnyard grass [30] = assay: Test Example 1: weedkilling efficacy, preemergent weed treatment in the submerged state; A: barnyard grass; settings: treatment dosage 252 g/ha
Procedure, shortened: as §4

crabgrass [31] = assay: Test Example 3: weedkilling efficacy through soil treatment; D: crabgrass; settings: treatment dosage 315 g/ha
Procedure, shortened: as §2

wheat [32] = assay: Test Example 4: foliar treatment, effect on crop; e: wheat; settings: treatment dosage 315 g/ha
Procedure, shortened: as §1

black-grass [33] = assay: Test Example 4: weedkilling efficacy by foliar treatment; H: black-grass; settings: treatment dosage 315 g/ha
Procedure, shortened: as §1

wild oat [34] = assay: Test Example 4: weedkilling efficacy by foliar treatment; G: wild oat; settings: treatment dosage 315 g/ha
Experimental: Testing of Weedkilling Efficacy by Foliar Treatment
Sterilized diluvial soil was introduced into 21 cm long, 13 cm wide, 7 cm deep plastic boxes, and seeds of crabgrass, green foxtail, barnyard grass, wild oat, black-grass, Italian ryegrass, common wind-grass, Indian mallow, redroot pigweed, fig-leafed goosefoot, chickweed, catchweed, birds-eye speedwell, corn, soybean, rice, wheat, beet and rapeseed were each spot-sown, and covered with about 1.5 cm of soil, then the plants were grown in a greenhouse at 25 to 30° C.
After they had grown for 14 days, emulsions of compounds of the present invention prepared according to compounding example 2 were diluted with water to give the specified dosages, and applied uniformly onto the stem and leaf parts with a small sprayer. 3 weeks after the pesticide treatment the effect on each type of plant was investigated on the basis of the assessment criteria of test example 1.
A: barnyard grass, B: bulrush, C: oval-leafed pondweed, D: crabgrass, E: green foxtail, F: barnyard grass, G: wild oat, H: black-grass, I: Italian ryegrass, J: common wind-grass, K: Indian mallow, L: redroot pigweed, M: fig-leafed goosefoot, N: chickweed, O: catchweed, p: birds-eye speedwell, a: transplanted rice, b: directly sown rice, c: corn, d: soybean, e: wheat, f: beet, g: rapeseed
Further, pesticide dosage (g/ha) indicates the concentration regulated such that treatment was with only the stated number of grams (g), when calculated per hectare (ha).

oval-leafed pondweed [35] = assay: Test Example 2: weedkilling efficacy, growth period weed treatment in the submerged state; C: oval-leafed pondweed; settings: treatment dosage 252 g/ha
Procedure, shortened: as §3

bulrush [36] = assay: Test Example 1: weedkilling efficacy, preemergent weed treatment in the submerged state; B: bulrush; settings: treatment dosage 252 g/ha
Procedure, shortened: as §4

CC1=C(c2ccccc2)C(=O)N(C(C)(C)C(=O)Nc2cc(Cl)cc(Br)n2)CO1 [B-2-36]
b (directly sown rice) effect on crop grade (directly sown rice [1]): 4 (weed kill ratio 70% or more, less than 90%)
c (corn) effect on crop grade (corn [2]): 3 (weed kill ratio 40% or more, less than 70%)
E (green foxtail) weedkilling efficacy grade (green foxtail [3]): 5 (weed kill ratio 90% or more, (practically complete withering))
O (catchweed) weedkilling efficacy grade (catchweed [4]): 5 (weed kill ratio 90% or more, (practically complete withering))
G (wild oat) weedkilling efficacy grade (wild oat [5]): 1 (weed kill ratio 5% or more, less than 20%)
H (black-grass) weedkilling efficacy grade (black-grass [6]): 5 (weed kill ratio 90% or more, (practically complete withering))
N (chickweed) weedkilling efficacy grade (chickweed [7]): 4 (weed kill ratio 70% or more, less than 90%)
M (fig-leafed goosefoot) weedkilling efficacy grade (fig-leafed goosefoot [8]): 3 (weed kill ratio 40% or more, less than 70%)
B (bulrush) weedkilling efficacy grade (bulrush [9]): 5 (weed kill ratio 90% or more, (practically complete withering))
I (Italian ryegrass) weedkilling efficacy grade (Italian ryegrass [10]): 0 (weed kill ratio 5% or less (practically no effect))
b (directly sown rice) effect on crop grade (directly sown rice [11]): 4 (weed kill ratio 70% or more, less than 90%)
f (beet) effect on crop grade (beet [12]): 3 (weed kill ratio 40% or more, less than 70%)
K (Indian mallow) weedkilling efficacy grade (Indian mallow [13]): 4 (weed kill ratio 70% or more, less than 90%)
K (Indian mallow) weedkilling efficacy grade (Indian mallow [14]): 4 (weed kill ratio 70% or more, less than 90%)
I (Italian ryegrass) weedkilling efficacy grade (Italian ryegrass [15]): 4 (weed kill ratio 70% or more, less than 90%)
D (crabgrass) weedkilling efficacy grade (crabgrass [16]): 5 (weed kill ratio 90% or more, (practically complete withering))
N (chickweed) weedkilling efficacy grade (chickweed [17]): 4 (weed kill ratio 70% or more, less than 90%)
P (birds-eye speedwell) weedkilling efficacy grade (birds-eye speedwell): 4 (weed kill ratio 70% or more, less than 90%)
C (oval-leafed pondweed) weedkilling efficacy grade (oval-leafed pondweed [18]): 5 (weed kill ratio 90% or more, (practically complete withering))
d (soybean) effect on crop grade (soybean [19]): 3 (weed kill ratio 40% or more, less than 70%)
d (soybean) effect on crop grade (soybean [20]): 1 (weed kill ratio 5% or more, less than 20%)
A (barnyard grass) weedkilling efficacy grade (barnyard grass [21]): 5 (weed kill ratio 90% or more, (practically complete withering))
L (redroot pigweed) weedkilling efficacy grade (redroot pigweed [22]): 4 (weed kill ratio 70% or more, less than 90%)
O (catchweed) weedkilling efficacy grade (catchweed [23]): 4 (weed kill ratio 70% or more, less than 90%)
e (wheat) effect on crop grade (wheat [24]): 0 (weed kill ratio 5% or less (practically no effect))
E (green foxtail) weedkilling efficacy grade (green foxtail [25]): 5 (weed kill ratio 90% or more, (practically complete withering))
L (redroot pigweed) weedkilling efficacy grade (redroot pigweed [26]): 3 (weed kill ratio 40% or more, less than 70%)
c (corn) effect on crop grade (corn [27]): 1 (weed kill ratio 5% or more, less than 20%)
a (transplanted rice) effect on crop grade (transplanted rice): 0 (weed kill ratio 5% or less (practically no effect))
f (beet) effect on crop grade (beet [28]): 3 (weed kill ratio 40% or more, less than 70%)
M (fig-leafed goosefoot) weedkilling efficacy grade (fig-leafed goosefoot [29]): 4 (weed kill ratio 70% or more, less than 90%)
A (barnyard grass) weedkilling efficacy grade (barnyard grass [30]): 5 (weed kill ratio 90% or more, (practically complete withering))
D (crabgrass) weedkilling efficacy grade (crabgrass [31]): 5 (weed kill ratio 90% or more, (practically complete withering))
e (wheat) effect on crop grade (wheat [32]): 0 (weed kill ratio 5% or less (practically no effect))
H (black-grass) weedkilling efficacy grade (black-grass [33]): 3 (weed kill ratio 40% or more, less than 70%)
G (wild oat) weedkilling efficacy grade (wild oat [34]): 1 (weed kill ratio 5% or more, less than 20%)
C (oval-leafed pondweed) weedkilling efficacy grade (oval-leafed pondweed [35]): 5 (weed kill ratio 90% or more, (practically complete withering))
B (bulrush) weedkilling efficacy grade (bulrush [36]): 5 (weed kill ratio 90% or more, (practically complete withering))

— patent US9738634B2, “Heterocyclic amide compound and herbicide” (SYNGENTA PARTICIPATIONS AG, priority 2013, dated 2017)
